Laboratory results as given in patent publication EP3611183B1, “EPITOPE PEPTIDE SPECIFICALLY RECOGNIZING AUTOANTIBODY AGAINST AQUAPORIN 5, AND USE THEREOF” (Seoul National University R & DB Foundation, priority 2017, dated 2023).

System: anti-AQP5 autoantibodies
Assay: Indirect immunofluorescence (IIF) assay: AQP5 staining by human serum/IgG pre-incubated with peptide
Type: binding
Conditions: for inhibition of anti-AQP5 autoantibodies from the control group: by comparison of the mean signal intensities (Fig. 2B); for frequency of recognition by SS vs control samples: seven peptides originating from the AQP5 sequence
Text: This study was done in compliance with the Helsinki Declaration after approvals from the Institutional Review Board of Seoul National University Hospital (IRB number: 0912-011-302) and the Institutional Review Board of Seoul St. Mary's Hospital (IRB number: KC13ONMI0646). From our previous study (12), 13 control and 24 SS serum samples positive for anti-AQP5 IgG were chosen based on the levels of anti-AQP5 IgG and availability. The first 12 control and 12 SS samples had similar low levels of anti-AQP5 IgG, while the rest of the samples had intermediate to high levels. IgG antibodies were purified using a protein A column (ThermoFisher Scientific, Waltham, MA, USA) from the sera of 3 SS patients who were not included in the previous study. A commercial human IgG product purified from pooled normal sera (Sigma-Aldrich Korea, Seoul, Korea) was used as control. All SS patients fulfilled the 2002 American-European Consensus group classification criteria and/or the 2012 American College of Rheumatology criteria. Madin-Darby canine kidney (MDCK) cells expressing full-length human AQP5 (MDCK-AQP5) were maintained in DMEM medium with 10% FBS and 1% penicillin/streptomycin in the presence of G418 (12). A mixture of non-transfected MDCK and MDCK-AQP5 cells (6 × 10^4) was plated onto collagen-coated coverslips of 12 mm diameter. After stimulation with 0.5 mM cAMP for 24 hours, the cells were fixed with 4% paraformaldehyde in PBS (pH 7.4) and subjected to antigen retrieval by incubation in sodium citrate buffer (10 mM sodium citrate, 0.05% Tween-20, pH 6) at 105 °C for 20 min. After blocking with 5% BSA in PBS, the cells were incubated with goat polyclonal antibodies raised against a peptide near the C-terminus of human AQP5 (Santa Cruz, Paso Robles, CA, USA) along with control/SS sera (1:200 dilution) or purified IgG (10 µg) that were pre-incubated overnight with 10 µg synthetic peptides in RIA buffer (10 mM Tris-HCl, 350 mM NaCl, 1% BSA, 1% Triton X-100, 0.5 % Sodium deoxycholate, 0.1% SDS, 10% Horse serum, pH 7.6). Subsequently, the cells were stained with Alexa Fluor 488-conjugated donkey anti-goat IgG (Invitrogen, Carlsbad, CA, USA) and CF™ 594-conjugated rabbit anti-human IgG (Sigma-Aldrich). At least four images of AQP5-expressing cells were randomly selected, based on the goat anti-AQP5 antibody stain, and imaged sequentially for the staining with human IgG using a confocal microscope (Carl Zeiss, Jena, Germany). After coding the images, two individuals blindly determined the relative intensities of the anti-AQP5 human IgG signals by decreasing the brightness of the red signal until all the signals of AQP5 stain disappeared. […] The mean of the Δ brightness was used to express the anti-AQP5 IgG level in each sample. The differences in proportion between two groups were determined by Fisher's exact test. Differences in means between the experimental and control groups were determined by Student's t-test, while the differences among peptides were determined by Oneway ANOVA. All statistical analyses were performed using SPSS (SPSS Inc., Chicago, USA). To analyze the epitopes recognized by anti-AQP5 autoantibodies, MDCK-AQP5 cells were double stained with goat anti-AQP5 antibodies and serum from either control subjects or SS patients that were pre-incubated with each peptide (Fig. 2A). The intensity of AQP5 staining by human IgG in the presence of each peptide was expressed as the percentage of control conditions in the absence of peptides (Table 2). Because the normalized intensities of AQP5 staining in the presence of IRP varied from 69 to 173 depending on the sample, signal intensities smaller than 62.2, which is the mean - 2SD of values in the presence of IRP, were regarded as being inhibited by the corresponding peptide.

Row | Sequence | inhibition of anti-AQP5 autoantibodies from the control group | frequency of recognition by SS vs control samples | control samples inhibited by / recognizing the peptide (14 control samples (13 sera, 1 control-IgG), inhibited = signal intensity smaller than 62.2) | SS samples inhibited by / recognizing the peptide (27 SS samples (24 sera, 3 purified IgG), inhibited = signal intensity smaller than 62.2)
1 | CMNPARSFGC (Epitope of AQP5 Extracellular loop E with Cystein added at N- and C- term) [E2, Extracellular loop E aa 184-191 with added terminal cysteines] | significantly inhibited | more frequently recognized by SS than by control samples |  | 
2 | GCSMNPARSFGC (Epitope of AQP5 Extracellular loop E with Cystein added at C- term) [peptide E1, Extracellular loop E aa 181-191 with C-terminal cysteine added] | significantly inhibited | most frequently recognized | 2 of 14 | 20 of 27
